For assay [1], the system named is methicillin resistant Staphylococcus aureus. The following applies: methicillin-resistant S. aureus (MR); s.c. in the hour subsequent to inoculation; previous studies; cited from earlier work.
Assay [2] has as its system methicillin-resistant S. aureus. The settings on record: S. aureus (MR); s.c. in the hour subsequent to inoculation; cited from earlier work.
For assay [3], the system named is microbial growth. Description: Bacterial culture experiments with EK. The assay is classed as cell-based. The following applies: concentrations exceeding 1000 times the administered dose to animals.
For assay [4], the system named is methicillin resistant Staphylococcus aureus. Description: Survival of mice inoculated with 10xLD50 S. aureus, EK pretreatment with or without Ampicillin. The assay is classed as in vivo. As to the method: Animals were inoculated intraperitoneally with 10×LD50 of a Staphylococcus aureus suspended in brain-heart infusion broth containing 5 percent mucin. […] If significant prevention of mortality (>50 percent survival) was observed, the minimum effective dose (MED) was determined.
Two control experiments were initially conducted. […] No antibiotic was administered to this group. The number of survivors at 72 hours was determined. […] The number of survivors at 72 hours was recorded.
Survival statistics were determined over the periods of 12, 24, 36, 48, and 72 hours. […] Survival statistics were determined over the periods 12, 23,36, 48, and 72 hours. FIG. 1 illustrates the experimental protocol.

[5] abbreviates: 12 HOURS after inoculation, EK 10 mcg/kg.
[6] abbreviates: 12 HOURS after inoculation, EK 100 mcg/kg.
The mark [7] stands for this setting: 12 HOURS after inoculation, EK 1000 mcg/kg.
Where [8] appears, read: 24 HOURS after inoculation, EK 10 mcg/kg.
Where [9] appears, read: 24 HOURS after inoculation, EK 100 mcg/kg.
The mark [10] stands for this setting: 24 HOURS after inoculation, EK 1000 mcg/kg.
The mark [11] stands for this setting: 36 HOURS after inoculation, EK 10 mcg/kg.
[12] abbreviates: 36 HOURS after inoculation, EK 100 mcg/kg.
The mark [13] stands for this setting: 36 HOURS after inoculation, EK 1000 mcg/kg.
The mark [14] stands for this setting: 48 HOURS after inoculation, EK 10 mcg/kg.
Setting [15] is: 48 HOURS after inoculation, EK 100 mcg/kg.
Where [16] appears, read: 48 HOURS after inoculation, EK 1000 mcg/kg.
Setting [17] is: 72 HOURS after inoculation, EK 10 mcg/kg.
Where [18] appears, read: 72 HOURS after inoculation, EK 100 mcg/kg.
[19] abbreviates: 72 HOURS after inoculation, EK 1000 mcg/kg.

A value given as a limit tells only on which side of the number the result lay.

For `CC1(C)S[C@@H]2[C@H](NC(=O)[C@H](N)c3ccccc3)C(=O)N2[C@H]1C(=O)O` [Amp, Ampicillin], the “MED (minimum effective dose)” value in assay [1] and in assay [2] was “greater than 100 mg/kg” each time.
For Glu-Lys [EK], the “activity on microbial growth” value in assay [3] is listed as “no inhibitory nor suppressive activity”. Also, the Deaths in assay [4] (setting [5]) is reported as 0; in assay [4] (setting [6]), 2; in assay [4] (setting [7]), 1; in assay [4] (setting [8]), 5; in assay [4] (setting [9]) it was 5; in assay [4] (setting [10]), 1. Also, the Deaths was 9 in assay [4] (setting [11]); 9 in assay [4] (setting [12]); 4 in assay [4] (setting [13]); 13 in assay [4] (setting [14]); 13 in assay [4] (setting [15]); 10 in assay [4] (setting [16]). Moreover, the Deaths came out at 13 in assay [4] (setting [17]), 13 in assay [4] (setting [18]) and 11 in assay [4] (setting [19]). Moreover, the Survival in assay [4] (setting [5]) is on record as 100.00%; in assay [4] (setting [6]), 88.89%; in assay [4] (setting [7]), 94.44%; in assay [4] (setting [8]) it was 72.22%; in assay [4] (setting [9]), 72.22%; in assay [4] (setting [10]) it was 94.44%. The Survival in assay [4] (setting [11]) is 50.00%; in assay [4] (setting [12]), 50.00%; in assay [4] (setting [13]), 77.78%; in assay [4] (setting [16]), 44.44%; in assay [4] (setting [19]), 38.89%; in assay [4] (at 36 hours, across EK dose groups), at most 78%. For the same compound, in assay [4] (by 72 hours, across EK dose groups), the “Survival” value is “at least 27%”. The Survivors is on record as 18 in assay [4] (setting [5]); 16 in assay [4] (setting [6]); 17 in assay [4] (setting [7]); 13 in assay [4] (setting [8]); 13 in assay [4] (setting [9]); 17 in assay [4] (setting [10]). The Survivors is listed as 9 in assay [4] (setting [11]); 9 in assay [4] (setting [12]); 14 in assay [4] (setting [13]); 5 in assay [4] (setting [14]); 5 in assay [4] (setting [15]); 8 in assay [4] (setting [16]). Besides, the Survivors in assay [4] (setting [17]) is recorded as 5; in assay [4] (setting [18]), 5; in assay [4] (setting [19]) it was 7. Besides, the “survival after normally lethal i.p. dose of S. aureus” value in assay [4] (EK pretreatment) is reported as “dramatic improvement in survival”.
